Values of other authors in patent US10772813B2, “Compositions and methods of administering a colchicine based topical composition for the prevention of radiation fibrosis” (Colradel, LLC, priority 2016, dated 2020).
“Also recorded” adds a separate entry of the source.

Columns and labels:
[1] = topical vs high oral doses
fibroblasts = conditions: low doses
[2] = tested on: radiation-induced fibrosis; conditions: single agent, oral

Compound: tocopherol [vitamin E]
- concentration achievable by topical administration versus high doses orally [1]: 11 times

Compound: COc1cc2c(c(OC)c1OC)-c1ccc(OC)c(=O)cc1[C@@H](NC(C)=O)CC2 [colchicine]
- concentration in the skin / dermis (0.2% colchicine ointment compared with 0.5%): same concentration in the dermis 0.5%; also recorded: the same concentration in the skin as 0.5%
- side effects (0.2% formulation (0.2 gram in 100 ml), transdermal ointment): no side effects
- transdermal absorption (ointment, treatment of gout): well-absorbed transdermally
- inhibition of fibroblast migration (fibroblasts): 93%
- side effects (fibroblasts): without any side effects

Compound: CC(=O)CCCCn1c(=O)c2c(ncn2C)n(C)c1=O [pentoxifylline, 3,7-dimethyl-1-5-(5-oxohexyl)-xanthine]
- improvement in late radiation-induced fibrosis [2]: significant improvement
